Experimental data from US10456441B2, “Augmenting the immune response by promoting cell death of immune cells” (The University of Vermont and State Agricultural College, priority 2014, dated 2019).
Where a SMILES comes first, the peptide text is derived from it. The star is where a group is joined. Cbz = O=C(OCc1ccccc1)*; CH2F = FC*

Columns and labels:
BMDC = test: Cell death of BMDC by TUNEL assay; type: cell-based, mice
Experimental: (§1) The preparation of bone marrow-derived dendritic cells (BMDC) was done according to the method of Lutz et al. (26) using GM-CSF ([…] PeproTech, Rocky Hill N.J.) or GM-CSF plus IL-4 (10 μg/ml, PeproTech). Cells were used on day 7.
Cell death was examined by terminal deoxynucleotidyl transferase dUTP nick end labeling (TUNEL). Briefly, cells were stained for expression of cell surface molecules, and then fixed with 1% methanol-free formaldehyde followed by 70% ethanol. After washing, the TUNEL reaction was performed by incubating cells in 50 μl of reaction mix containing 10 units of terminal deoxribosyl transferase (TdT), 2.5 mM cobalt chloride in 1× TdT buffer, and 0.2 pmol/μl of FITC-dUTP (Roche, Indianapolis, Ind.) at 37° C. for 1 hour. The cells were washed twice and fixed in 1% methanol-free formaldehyde. Murine thymocytes were included as a positive control for apoptotic cells. Flow cytometry was performed on an LSRII (BD Biosciences, San Jose, Calif.) calibrated with compensation beads (BD Biosciences). Analysis was performed using FlowJo software (Tree Star, Inc., Ashland, Oreg.).

γδ T cells = test: Mixed cultures of γδ T cells and BMDC: γδ T cell activation (IL-17, IFN-γ, CD25); type: cell-based, mice
Experimental: Cells were washed three times and then rocked with goat anti-rat conjugated magnetic beads at a 10:1 ratio of beads to cell at 4° C. for 45 min. Magnetic depletion was used to remove bead-bound cells. […] After 2 days, cells were removed from anti-TCR-γδ stimulation, supplied with fresh medium plus IL-2, and returned to culture at a density of 0.3×10^6 cells/ml. Cells were counted daily and supplied with fresh media containing 50 units/ml IL-2. […] In addition, in some experiments freshly isolated splenic γδ T cells were prepared using anti-γδ-coated magnetic beads (Miltenyi Biotec) and magnet purification.
as §1
Day 7 γδ T cells and BMDC were cultured either individually or together at a 1:1 ratio (10^6 cells/ml each). To some cultures the following reagents were added: a sonicate of Borrelia burgdorferi (10 μg/ml), zVAD-fmk (MP Biomedical, Santa Ana Calif.) at the doses indicated, necrostatin (50 μM, R&D Systems, Minneapolis, Minn.), anti-TNF-α (10 μg/ml, Calbiochem, Darnstadt, Germany),, anti-IL-1 Receptor antagonist, Anakinra (200 ng/ml, Amgen, Thousand Oaks, Calif.), anti-IL-12 (10 μg/ml, BioLegend San Diego, Calif.), anti-IL-18 (10 μg/ml, MBL, Woburn Mass.), or rat IgG (10 μg/ml Jackson Immunoresearch, West Grove Pa.). Transwell assays were performed using 1×10^6 γδ T cells in 1 ml of complete medium+IL-2 placed in the lower chamber, with 5×10^5 DC in 100 μl placed in the upper chamber. […]
Cytokine levels of IFN-γ, IL-1β, IL-12p40, IL-12p70, IL-17, and TNF-α were detected using the Bio-Plex, MilliPlex, or Luminex immunoassay (Bio-Rad; Millipore-EMD; R&D Systems, Minneapolis, Minn.) according to the manufacturer's protocol. Briefly, samples were run undiluted or diluted 1:10 in RPMI complete media. 50 μl of the magnetic bead working solution was added to each well, then 50 μl of appropriate samples or standards were then added to wells and incubated at room temperature for 30-120 min at 800 rpm on an IKA MS 3 digital shaker. After three washes with 100 μl Bio-Plex wash buffer, incubation with 25 μl of detection antibody solution was done at room temperature for 30-60 min on the shaker. Following another set of three washes, 50 μl of streptavidin-phycoerythrin (PE) in assay buffer was added to each well and incubated as described for the previous step. After an additional three washes, 125 μl of assay buffer was added. Sample data was analyzed with Bio-Plex Manager software.
The following monoclonal antibodies to murine cell surface molecules were purchased from BioLegend: PE-conjugated anti-CD25, APC-conjugated anti-TCR-γδ, and TNF-α neutralizing antibody. Rat IgG was purchased from Jackson Immunoresearch (West Grove, Pa.). For direct staining, single cell suspensions (1×10^6 total cells per staining condition) were washed with cold (4° C.) PBS containing 1% (w/v) BSA fraction V (Sigma) (PBS/1% BSA), incubated with unconjugated rat IgG (50 μg/ml) for 15 min at 4° C., washed again, and then incubated with the appropriate antibodies in PBS/1% BSA. After washing, the cells were fixed with freshly made 1% (v/v) methanol-free formaldehyde (Ted Pella Inc., Redding, Calif.) in PBS/1% BSA.

[1] = system: human synovial Vδ1 clone Bb15; test: Human synovial γδ T cell clone Bb15 cultured with human DC and B. burgdorferi; type: cell-based; conditions: Borrelia plus zVAD-treated (50 μM) DC cultured with GM-CSF alone
Experimental: γδ T cell clones were derived from synovial fluid T cells stimulated with B. burgdorferi sonicate (10 μg/ml) and then cloned at limiting dilution as previously described (8). All clones are of the Vδ1 subset by antibody staining and DNA sequencing (8). Clones were restimulated every 10-14 days in the presence of irradiated peripheral blood lymphocytes (3×10^5/well), human recombinant IL-2 (10 U/ml), and 10 μg/ml of B. burgdorferi.
Human monocytes were obtained as […] cells by magnetic bead purification (Miltenyi Biotech, Auburn, Calif.) from peripheral blood of healthy volunteers. Myeloid DC were prepared by culture of monocytes in AIM V media plus 10% fetal calf serum (HyClone) with 800 U/ml of granulocyte-macrophage colony-stimulating factor (GM-CSF), (BioLegend, San Diego, Calif.) without or with 500 U/ml IL-4 (BioLegend).

[2] = cultured γδ T cells + zVAD-treated BMDC, presence of B. burgdorferi, zVAD 50 μM, 20 h
[3] = freshly isolated splenic γδ T cells + zVAD-treated DC + Borrelia
[4] = freshly isolated splenic γδ T cells + zVAD-treated DC, absence of Borrelia
[5] = zVAD-treated BMDC, absence of Borrelia

For CC(C)[C@H](NC(=O)OCc1ccccc1)C(=O)N[C@@H](C)C(=O)N[C@@H](CC(=O)O)C(=O)CF [zVAD, N-benzyloxycarbonyl-Val-Ala-Asp-fluoromethyl ketone] (Cbz-Val-Ala-Asp-CH2F), the “dead BMDC” value (BMDC; 50 μM zVAD, BMDC grown in GM-CSF, within 18 hours, dose-dependent) was about 80%, the “cell death of BMDC” value (BMDC; GM-CSF+IL-4-cultured BMDC with zVAD, compared to BMDC cultured with only GM-CSF) was “greatly reduced cell death” and the “expression of surface CD25 on γδ T cells” value (γδ T cells; [2]) was “increased expression”. The “production of IFN-γ by γδ T cells” value (γδ T cells; [2]) was “augmented production”, the “production of IL-17 by γδ T cells” value (γδ T cells; [2]) was “augmented production” and the “production of IFN-γ by fresh γδ T cells” value (γδ T cells; [3]) was “greatly augmented production”. For the same compound, the “production of IL-17 by fresh γδ T cells” value (γδ T cells; [3]) was “greatly augmented production”, the “production of IFN-γ by fresh γδ T cells” value (γδ T cells; [4]) was “occurred even in the absence of Borrelia” and the “production of IL-17 by fresh γδ T cells” value (γδ T cells; [4]) was “occurred even in the absence of Borrelia”. The “activation of γδ T cells in transwell assay” value (γδ T cells; no cell contact, BMDC+Borrelia+zVAD in upper chamber) was “partial activation”, the “activation of γδ T cells by supernatants alone” value (γδ T cells; supernatants from cultures with BMDC+Borrelia+zVAD, no added BMDC or Borrelia) was “could augment activation” and the “production of IFNγ by γδ T cells” value (γδ T cells; [5]) was “some production”. The “production of IL-17 by γδ T cells” value (γδ T cells; [5]) was “some production” and the “IFN-γ production by clone Bb15” value [1] was “increased IFN-γ production”.
